melting point: 178 °C
Compound: CCCc1nn(C)c2c(NCc3ccc(OC)c(Cl)c3)nc(CCC(=O)O)nc12 [Example 2, 3-[7-(3-chloro-4-methoxybenzylamino)-1-methyl-3-propyl-1H-pyrazolo-[4,3-d]pyrimidin-5-yl]propionic acid]

— patent US20040063730A1, “Pharmacuetical formulation comprising puyrazolo[4,-3-d]pyrimidines and antithrombotics, calcium antagonists, or prostaglandins or prostaglandin derivatives” (priority 2000, published 2004)
